Assay results taken from patent US12083089B2, “Compositions and methods for stimulating ventilatory and/or respiratory drive” (CASE WESTERN RESERVE UNIVERSITY, priority 2015, dated 2024).
Entries after “also recorded” stand apart in the source; their conditions may differ.

Assays:
freely moving rats [1] = assay: Hot-plate (hind-paw withdrawal) latency (HPL), Hargreaves's test, morphine 10 mg/kg; type: in vivo, rat
freely moving rats [2] = assay: Tail-flick latency (TFL) test; type: in vivo, rat
[3] = test system: freely moving adult male Sprague-Dawley rats; assay: Whole-body plethysmography of ventilatory parameters in morphine-treated rats
Description: Permissions, rats, surgical procedures and blinding of protocols. All studies were carried out in accordance with the NIH Guide for the Care and Use of Laboratory Animals (NIH Publication No. […]) revised in 1996. The protocols were approved by the Animal Care and Use Committees of the University of Virginia, Case Western Reserve University and Loma Linda University. In addition, all studies were carried out in compliance with the ARRIVE (Animal Research: Reporting of In Vivo Experiments) guidelines. Adult male Sprague-Dawley rats (Harlan, Madison, WI, USA) were implanted with jugular vein catheters under 2% isoflurane anesthesia and some rats received femoral arterial catheters. The rats were allowed at least four days to recover from surgery before use. All arterial catheters were flushed daily with heparin solution (50 units of heparin in phosphate-buffered saline at 0.1 M, pH 7.4). All catheters were flushed with phosphate-buffered saline (0.1 M, pH 7.4) approximately four hours before commencement of the experiments. All studies were performed in a quiet laboratory with relative humidity of 49±2% and room temperature of 21.4±0.2° C. […] Also, please note that the antinociception and ventilatory studies were done in separate groups of rats so as to not complicate the respiratory measurements. The recording (plethysmography, antinociception) sessions and the arterial blood gas assays were done by a particular investigator who administered the opioid, vehicle or test drug such as d-cystine diME. The syringes containing the vehicle or test drug were made up by another investigator, such that the investigator running the actual experiment was blinded to the treatment protocol. In every case, the data files resulting from a particular study were first collated and analyzed by another investigator in the group.
Ventilatory parameters were recorded in freely moving rats by whole body plethysmography (PLY3223; Data Sciences International, St. Paul, MN). The rats were placed in individual chambers and given 60 min to acclimatize to allow true resting ventilatory parameters to be established. […] The rats received another injection of vehicle or 1-NACme (500 μmol/kg, IV) 15 min later and ventilatory parameters were recorded for a further 60 min.
The provided software (Fine Pointe, BUXCO) constantly corrected digitized values for changes in chamber temperature and humidity. Pressure changes associated with the respiratory waveforms were then converted to volumes (i.e., TV, PIF and PEF) using the algorithm of Epstein and colleagues. Specifically, factoring in chamber temperature and humidity, the cycle analyzers filtered the acquired signals, and BUXCO algorithms (Fine Pointe) generated an array of box flow data that identified a waveform segment as an acceptable breath. From that data vector, the minimum and maximum values were determined. Flows at this point were considered to be “box flow” signals.
The recorded data (1 min bins) and derived parameters, Vt/Ti and Response Area (cumulative percent changes from pre-values) were taken for statistical analyses. The pre-drug 1 min bins excluded occasional marked deviations from resting due to movements or scratching by the rats. These exclusions ensured accurate determinations of baseline parameters. The data are presented as mean±SEM. All data unless other-wise stated (see immediately below) were analyzed by one-way or two-way analysis of variance followed by Student's modified t test with Bonferroni corrections for multiple comparisons between means using the error mean square terms from each ANOVA. A value of P<0.05 denoted the initial level of statistical significance that was modified according to the number of comparisons between means.

conscious rats = assay: Morphine-induced analgesia (paw withdrawal latency assay), Example 1; type: in vivo, rat; details: 500 μmol/kg i.v.; 10 mg/kg of morphine; FIG. 13
rats = assay: Hemodynamics (preliminary toxicology); type: in vivo, rat; details: 500 μmol/kg, i.v.
Description: FIGS. 11(A-C) illustrate plots showing the effects of test agents (500 μmol/kg, i.v.) on hemodynamic variables. Data are presented mean±SEM (n=8 rats per group).

[4] = test system: conscious (adult male) C57 black 6 (C57BL6) mice; assay: Ventilatory responses in conscious mice; type: in vivo, mouse
freely moving rats [5] = assay: Arterial blood-gas chemistry and A-a gradient in morphine-treated rats; type: in vivo, rat
adult male rats [6] = assay: Von Frey Test, morphine 1 mg/kg; type: in vivo, rat; details: for force needed to initiate hind-paw withdrawal (Von Frey): FIG. 27 study
adult male rats [7] = assay: Hargreaves Hind-paw Latency Test, morphine 1 mg/kg; type: in vivo, rat; details: for effect on the antinociception actions of morphine (Hargreaves): 500 μmol/kg IV with morphine sulfate 1.0 mg/kg IV; for thermal nociception (Hargreaves Testing) when given alone: 500 μmol/kg IV, tested 20 to 30 min post-injection; for Hargreaves hind-paw withdrawal latency: FIG. 26 study
[8] = test system: conscious male adult Sprague-Dawley rats; assay: Plethysmographic ventilatory responses to test compounds in conscious rats; type: in vivo, rat
humans = details: oral NAC three times daily, exposed acutely to isocapnic hypoxia; cited from earlier work
[9] = 500 μmol/kg IV, before morphine
[10] = drug 500 μmol/kg IV 20 min before morphine 10 mg/kg IV
[11] = 500 μmol/kg IV in morphine (10 mg/kg IV)-treated rats, FIG. 21
[12] = freely moving rats, morphine 10 mg/kg IV, then d-cystine diEE 500 μmol/kg IV 15 min later

CCOC(=O)[C@H](N)CSSC[C@@H](N)C(=O)OCC [D-Cystine diEE, D-Cystine diethylester]
HPL after the drug alone (freely moving rats [1]; [9]): transient increase
time within which the transient increase in HPL resolved (freely moving rats [1]; [9]): ≤ 15 min
antinociceptive effects of morphine (HPL) in drug-pretreated rats (freely moving rats [1]; [10]): enhanced
TFL after the drug alone (freely moving rats [2]; [9]): transient increase
time within which the transient increase in TFL resolved (freely moving rats [2]; [9]): ≤ 15 min
antinociceptive effects of morphine (TFL) in drug-pretreated rats (freely moving rats [2]; [10]): enhanced
initial peak responses: Freq, TV, MV, PIF, PEF, EF50, inspiratory and expiratory drive [3, 11]: pronounced increases
total response: Freq [3, 11]: relatively minor increase in Freq
total response: TV, MV, PIF, PEF, PEF/PIF, EF50, inspiratory and expiratory drives [3, 11]: robust sustained increases
ventilatory depressant effects of morphine incl. tidal volume/inspiratory time (Vt/Ti) ([3]; bolus 500 μmol/kg i.v. (D-CYSee 2×500 μmol/kg) after morphine 10 mg/kg i.v., conscious rats, Example 1): immediate and sustained reversal
duration of the brief increase in Freq ([3]; d-cystine diEE 500 μmol/kg IV, 15 min after morphine 10 mg/kg IV): about 5 min
changes in EF50 [3, 12]: further prompt and sustained increase
changes in PEF/PIF [3, 12]: decrease in PEF/PIF immediately upon injection
changes in expiratory drive (TV/Te) [3, 12]: substantial and sustained increase
changes in expiratory time (Te) [3, 12]: without greatly affecting Te
changes in frequency of breathing (Freq) [3, 12]: brief increase in Freq of about 5 min in duration that was followed by a gradual and sustained elevation
changes in inspiratory drive (TV/Ti) [3, 12]: noticeable but partial recovery
changes in inspiratory time (Ti) [3, 12]: brief decrease in Ti
changes in minute ventilation (MV) [3, 12]: prompt and long-lasting reversal
changes in peak expiratory flow (PEF) [3, 12]: marked increase in PEF to levels well above pre-morphine levels
changes in peak inspiratory flow (PIF) [3, 12]: prompt and relatively sustained reversal
changes in the ratio of Te/Ti [3, 12]: similarly
morphine analgesia (conscious rats): does not attenuate

COC(=O)[C@H](N)CSSC[C@@H](N)C(=O)OC [D-Cystine diME, D-Cystine dimethylester]
hemodynamic responses (FIG. 11) (rats): minimal responses; also recorded: did not elicit significant responses
duration of increases in frequency of breathing, tidal volume and minute ventilation [4]: approximately 20 min
frequency of breathing, tidal volume and minute ventilation (response) ([4]; 250 mol/kg dose): robust increases
deleterious actions of morphine on ABG chemistry and A-a gradient (freely moving rats [5]; bolus 500 μmol/kg i.v. after morphine 10 mg/kg i.v., Example 1): reversed
changes in ABG chemistry (pH, pCO2, pO2 and sO2) (freely moving rats [5]; freely moving rats, morphine 10 mg/kg IV, then drug 500 μmol/kg IV 15 min later, FIG. 18): reversed immediately
changes in A-a gradient (freely moving rats [5]; freely moving rats, morphine 10 mg/kg IV, then drug 500 μmol/kg IV 15 min later, FIG. 19): reversed immediately
effect on the antinociception actions of morphine (Von Frey) (adult male rats [6]; 500 μmol/kg IV with morphine sulfate 1.0 mg/kg IV, listed as d-cystine diME): neither thiolester affected
mechanical allodynia (Von Frey Testing) when given alone (adult male rats [6]; 500 μmol/kg IV, tested 20 to 30 min post-injection, listed as d-cystine diME): neither d-cystine diME nor L-cystine diME affected
force needed to initiate hind-paw withdrawal (Von Frey) (adult male rats [6]; Morphine+D-cystine diME): 176±5 grams
force needed to initiate hind-paw withdrawal (Von Frey) (adult male rats [6]; given alone, D-cystine diME 500 μmol/kg IV, morphine 1 mg/kg IV): 144±8 grams
immediate effects on Freq, TV or MV ([3]; rat, in vivo): minimal immediate effects
effect on the antinociception actions of morphine (Hargreaves) (adult male rats [7]; listed as D-cystine diME): not different from each other
effect on the antinociception actions of morphine (Hargreaves) (adult male rats [7]; listed as d-cystine diME): neither thiolester affected
thermal nociception (Hargreaves Testing) when given alone (adult male rats [7]): not a significant difference
thermal nociception (Hargreaves Testing) when given alone (adult male rats [7]; listed as d-cystine diME): neither d-cystine diME nor L-cystine diME affected
Hargreaves hind-paw withdrawal latency (adult male rats [7]; Morphine+D-Cystine diME): 16.9 ± 1.0 s
Hargreaves hind-paw withdrawal latency (adult male rats [7]; given alone, D-cystine diME 500 μmol/kg IV, morphine sulfate 1 mg/kg IV): 12.9 ± 1.0 s
duration of increases in frequency of breathing, tidal volume and minute ventilation ([8]; 500 μmol/kg, i.v.): 20 min
total ventilatory responses recorded over the 30 min post-injection period (% baseline), comparison of efficacy ([8]; 500 μmol/kg, i.v., FIG. 2): most efficacious of the test compounds
frequency of breathing, tidal volume and minute ventilation (response) ([8]; 500 mol/kg, i.v.): robust increases
how sustained the ventilatory effect is, compared with D-CYSee and L-CYSee ([8]; 500 mol/kg, i.v.): most sustained effect
dose-dependency of ventilatory responses ([8]; FIG. 3): clearly dose-dependent

CC(=O)N[C@@H](CS)C(=O)O [NAC, N-acetylcysteine]
increase in minute ventilation (humans): 24±4%
